Source: the supplement of paper PMC13380429

Assays:
Conditions in all cases: 72 h
Caco-2 [1] = assay: drug sensitivity score (DSS) for viability; higher = more toxic; extreme values may be limits of the assay
Vero E6 [2] = assay: as above
Calu-3 [3] = assay: as above
U2OS [4] = assay: as above
HepG2 [5] = assay: as above
Caco-2 [6] = assay: relative viability EC50 (midpoint between 100% and the lowest measured viability); higher = less toxic
Vero E6 [7] = assay: as above
Calu-3 [8] = assay: as above
U2OS [9] = assay: as above
HepG2 [10] = assay: as above
Caco-2 [11] = assay: cell viability relative to DMSO; higher = less toxic
Vero E6 [12] = assay: as above
Calu-3 [13] = assay: as above
U2OS [14] = assay: as above
HepG2 [15] = assay: as above

Structure (SMILES)	drug sensitivity score (Caco-2 [1])	drug sensitivity score (Vero E6 [2])	drug sensitivity score (Calu-3 [3])	drug sensitivity score (U2OS [4])	drug sensitivity score (HepG2 [5])	relative viability EC50 (Caco-2 [6]) [µM]	relative viability EC50 (Vero E6 [7]) [µM]	relative viability EC50 (Calu-3 [8]) [µM]	relative viability EC50 (U2OS [9]) [µM]	relative viability EC50 (HepG2 [10]) [µM]	cell viability (Caco-2 [11]; 1 nM) [%]	cell viability (Caco-2 [11]; 10 nM) [%]	cell viability (Caco-2 [11]; 100 nM) [%]	cell viability (Caco-2 [11]; 1000 nM) [%]	cell viability (Caco-2 [11]; 10000 nM) [%]	cell viability (Vero E6 [12]; 1 nM) [%]	cell viability (Vero E6 [12]; 10 nM) [%]	cell viability (Vero E6 [12]; 100 nM) [%]	cell viability (Vero E6 [12]; 1000 nM) [%]	cell viability (Vero E6 [12]; 10000 nM) [%]	cell viability (Calu-3 [13]; 1 nM) [%]	cell viability (Calu-3 [13]; 10 nM) [%]	cell viability (Calu-3 [13]; 100 nM) [%]	cell viability (Calu-3 [13]; 1000 nM) [%]	cell viability (Calu-3 [13]; 10000 nM) [%]	cell viability (U2OS [14]; 1 nM) [%]	cell viability (U2OS [14]; 10 nM) [%]	cell viability (U2OS [14]; 100 nM) [%]	cell viability (U2OS [14]; 1000 nM) [%]	cell viability (U2OS [14]; 10000 nM) [%]	cell viability (HepG2 [15]; 1 nM) [%]	cell viability (HepG2 [15]; 10 nM) [%]	cell viability (HepG2 [15]; 100 nM) [%]	cell viability (HepG2 [15]; 1000 nM) [%]	cell viability (HepG2 [15]; 10000 nM) [%]
O=C1NCC2(CCN(CCc3ccccc3)CC2)O1 [fenspiride]	0	0	0	0	0	> 10	> 10	> 10	> 10	> 10	99	103	91.2	101	104	94.9	98.3	97.9	103	103	96.6	92.5	85	92.3	98.9	105	97.7	101	99.2	108	96.7	107	100	112	103
CC1(C)OC(=O)C(OCC2CC2)=C1c1ccc(S(C)(=O)=O)cc1 [firocoxib]	3.5	0	0	0	0	> 10	> 10	> 10	> 10	> 10	98.3	91.8	84.1	83.4	86.5	100	101	99.2	96.4	98.2	95.9	93.2	95.6	110	104	96.7	107	95.3	97.2	102	105	97.7	104	103	101
O=C1NC(c2ccccc2)(c2ccccc2)C(=O)N1COP(=O)(O)O [fosphenytoin]	0	0	0	0	0	> 10	> 10	> 10	> 10	> 10	97.6	102	86.3	104	105	110	84.9	102	106	94.6	89.4	97.3	90.4	87.7	102	98	98.5	101	95.1	102	97.1	92.7	100	109	91.4
O=C1OC(CN2CCOCC2)CN1/N=C/c1ccc([N+](=O)[O-])o1 (stereo not given) [furaltadone]	0	0	0	0	2.1	> 10	> 10	> 10	> 10	> 10	96.5	87	79.7	99.8	82.3	108	94	103	109	102	95.7	93.6	94.4	103	104	99.8	99.3	95.4	106	95.1	96.4	93.3	92.8	81.7	82.5
CC(=O)[C@H]1CC[C@H]2[C@@H]3CC[C@H]4C[C@](C)(O)CC[C@]4(C)[C@H]3CC[C@]12C [ganaxolone]	0	0	0	0	0	> 10	> 10	> 10	> 10	> 10	95	98.7	98.2	98.7	101	89.8	103	91.2	95.7	106	96.7	94	98.5	98.4	102	98.8	99.4	101	100	100	93.4	108	94.2	102	101
